Measurements published in patent US4873088A, “Liposome drug delivery method and composition” (priority 1987, dated 1989).

Columns and labels:
[1] = both compounds in the free form; cited from earlier work
L1210 leukemia cells = assay: Acute therapeutic effect (mean survival time) in mice injected i.p. with 10^6 L1210 leukemia cells, i.v. ADM; type: in vivo, DBA 2J mice; conditions: one day after L1210
Method: The day of death of the animals was recorded, and the mean survival time of each group was calculated. Each group contained from between 6 and 10 mice.

[2] = Acute and chronic toxicity (LD50) after single i.v. dose in healthy mice; conditions: mouse, in vivo, iv
Method: The toxicity of the three ADM preparations in Table 1 above was tested against healthy DMA 2J mice.
The data are expressed in terms of LD50, i.e. the dosage (in mg drug per kilogram of animal body weight) which produces death in half the animals receiving the drug. […] The number of mice available for determination of chronic toxicity (survival of acute toxicity) varied from between about 2 and 10 mice per group.

YAC-1 lymphoma cells [3] = assay: PEC NK activity with and without anti-Asialo GM1 antibody + complement; type: cell-based, mice; conditions: PEC 7 days after treatment; for NK activity, specific 51Cr release, Untreated: no antibody
Method: In order to verify that the effector cells in the PEC population that were active against YAC-1 cells had.NK properties, PECs were treated with anti-Asialo GMI antiserum and complement in vitro prior to the 4 hr toxicity assay for PECs.
Anti-Asialo GM1 antibody was added directly to PEC in the microwells at a final dilution of 1:20. After 30 min on ice the cultured effector cells were spun down, supernatant removed and the cells resuspended. Low toxicity rabbit complement was added (final dilution 1:20) and the cultures incubated for 45 min. After 3 washings, the PECs (5×10^5) were cultures with 10^4 radio-labeled YAC-1 cells, and radioactivity released was assayed after 4 hours.

IL-1 = IL-1 like activity of adherent PEC culture supernatants (thymocyte comitogenic assay); type: cell-based, C3H/Hej mice
Method: (§1) The cells were cultured for 18 hours with the concentrations of LPS indicated below in Table 4.
A standard thymocyte comitogenic assay for IL-1 was used to test 18 h adherent PEC culture supernatants for IL1 like activity. Thymopytes (5×10^5) from C3H/Hej mice were added in 0.1 ml/well to flat bottom, 96 well plates. An equal volume of adherent PEC culture supernatant was added for a final volume of 0.2 ml. To facilitate a proliferative response, the media was supplemented with PHA ([…]) and 2-mercaptoethanol ([…]). Cultures were incubated for 72 h. Four hours before harvesting, the cultures were pulsed with [^3 H]dThd (New England Nuclear, 2 Ci/mole; […]).
Cells were harvested on glass fiber filters with an Otto Hiller cell harvester. The radioactivity was measured by scintillation counting using a Beckmann counter (Model LS 7000). Thymidine uptake by the thymocytes was expressed as mean cpm±S.D.

IL-2 = IL-2 activity of adherent PEC culture supernatants (IL-2 dependent CTCL-1 line); type: cell-based
Method: The purpose is to determine if the enhanced macrophage tumoricidal activity and NK activity detailed above correlates with increases in either IL-1 or IL-2.
as §1
The procedure used for assaying IL-2 has been described (Ehrke, 1986). Briefly, using a long term, IL-2 dependent cytolytic T cell line (CTCL-1), 10^4 cells in 0.1 ml were added to 0.1 ml volumes of conditioned media from adherent PEC cultures. The cells were incubated for 24 h and pulsed with [^3 H]Thd ([…]) 4 h before harvest. Results were expressed as the arithmetic mean of cpm dThd uptake ±S.D. A semipurified, rat IL-2 preparation was used as a positive control.

[4] = PEC ADM content by fluorescence after i.p. administration; type: in vivo, mice
Method: ADM was extracted from 10^6 PEC/sample by sonication in 36.5% HCl: absolute ethanol (1:11) in an ice bath for 5 min. This sonicated lysate was centrifuged (12,150×g) for 20 min at 4-6 C. The supernatant was measured for fluorescence at 468 nm excitation and 585 nm emission using a Perkin-Elmer (Model 650-10S) spectrofluorometer.

YAC-1 lymphoma cells [5] = assay: Splenic NK activity against YAC-1 cells (51Cr release); type: cell-based, mice
Method: Fresh spleen cells were added to ^51 Cr labeled YAC-1 cells at different effector to target cell ratios.

Cc1c(C)c2c(c(C)c1O)CCC(C)(CCCC(C)CCCC(C)CCCC(C)C)O2 (stereo not drawn) [alpha-tocopherol (vitamin E), alpha-tocopherol]
cardiotoxicity of ADM (in words) [1]: reduce the cardiotoxicity of ADM in animals

COc1cccc2c1C(=O)c1c(O)c3c(c(O)c1C2=O)C[C@@](O)(C(=O)CO)C[C@@H]3O[C@H]1C[C@H](N)[C@H](O)[C@H](C)O1 [free ADM, doxorubicin]
Mean Survival Time ± S.D. (L1210 leukemia cells; 10 mg/kg ADM): 18.4 ± 1.8 days | Mean Survival Time ± S.D. (L1210 leukemia cells; 20 mg/kg ADM): 12.2 ± 1.6 days | LD50 at 2880 h ([2]; death between 50 and 120 days, read-out: Mean LD50 ± S.D., chronic): 12 ± 5 mg/kg | LD50 at 336 h ([2]; death within 14 days, read-out: Mean LD50 ± S.D., acute): 20 ± 5 mg/kg | NK activity, specific 51Cr release, Asialo GM1 Antibody + Complement (YAC-1 lymphoma cells [3]; Exp. No. 1): 3.4 ± 0.9% | NK activity, specific 51Cr release, Untreated (YAC-1 lymphoma cells [3]; Exp. No. 1): 16.9 ± 2.6% | NK activity, specific 51Cr release, Asialo GM1 Antibody + Complement (YAC-1 lymphoma cells [3]; Exp. No. 2): 0.2 ± 0.8% | NK activity, specific 51Cr release, Untreated (YAC-1 lymphoma cells [3]; Exp. No. 2): 18.9 ± 1.4% | IL-1 activity (thymidine uptake by thymocytes) (IL-1; LPS 0 ng/ml): 9142 ± 1179 cpm | IL-1 activity (thymidine uptake by thymocytes) (IL-1; LPS 0.001 ng/ml): 9693 ± 230 cpm | IL-1 activity (thymidine uptake by thymocytes) (IL-1; LPS 0.1 ng/ml): 11588 ± 953 cpm | dependence of IL-1-like activity on LPS (in words) (IL-1; LPS 0.001 to 1,000 ng/ml): no significant increase in this activity from ADM PEC was observed with LPS exposure | IL-2 activity (dThd uptake) (IL-2; LPS 0 ng/ml): 285 ± 86 cpm | IL-2 activity (dThd uptake) (IL-2; LPS 0.001-1000 ng/ml): 286 ± 74 cpm | IL-2 activity (in words) (IL-2; with or without LPS activation): about background | ADM Equivalents in PEC ([4]; Day 4, i.p.): 4.2 ± 0.5 ng ADM/10^6 PECs | ADM Equivalents in PEC ([4]; Day 7, i.p.): 1.4 ± 0.4 ng ADM/10^6 PECs | ADM Equivalents in PEC ([4]; Day 11, i.p.): 0.2 ± 0.2 ng ADM/10^6 PECs | duration of suppression of splenic NK (in words) (YAC-1 lymphoma cells [5]): transient | splenic NK suppression (in words) (YAC-1 lymphoma cells [5]; 7 or 11 days before sacrifice): suppression was not observed | splenic NK activity (in words) (YAC-1 lymphoma cells [5]; 4 days following treatment): reduced
